Patent publication US20110059909A1, “METHODS FOR TREATING INFLAMMATORY DISORDERS” (priority 2004, published 2011)

Key:
[1] = target: T1, LacCer synthase (GalT-2) (Rattus norvegicus, UniProt O88419); assay: Measurement of [14C]LacCer synthesis in primary astrocytes (HPTLC); format: cell-based; conditions: TNFα 1 ng/ml
T1 construct: using cell lysates derived from cells stimulated with LPS/IFNγ; endogenous in cells; host or cells: rat primary astrocytes
T1 sequence (O88419 1-382): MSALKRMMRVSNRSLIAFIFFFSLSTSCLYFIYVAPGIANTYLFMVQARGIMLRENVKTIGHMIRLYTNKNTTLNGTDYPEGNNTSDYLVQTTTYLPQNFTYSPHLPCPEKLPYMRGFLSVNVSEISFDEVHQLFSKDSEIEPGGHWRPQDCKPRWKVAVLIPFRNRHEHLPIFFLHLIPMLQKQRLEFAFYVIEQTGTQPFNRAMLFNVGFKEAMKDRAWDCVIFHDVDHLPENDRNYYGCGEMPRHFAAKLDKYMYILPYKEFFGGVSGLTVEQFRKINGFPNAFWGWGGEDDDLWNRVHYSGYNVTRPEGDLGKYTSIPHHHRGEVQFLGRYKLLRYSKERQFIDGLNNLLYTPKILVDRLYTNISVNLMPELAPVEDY
Description: Cultured cells were incubated in growth medium containing [^14C]galactose (5 μCi/ml) for 24 h as described previously. The medium was removed, and the cell monolayer was washed with sterile PBS. After the stimulation with LPS/IFNγ (1 μg/ml; 10 U/ml) for various durations, cells were then harvested and washed with ice cold PBS and lysed by sonication. 200 μg of protein was used for extraction of lipids using Chloroform:Methanol:HCl (100:100:1). The organic phase was dried under nitrogen. Glycosphingolipids were resolved by high performance thin layer chromatography using chloroform/methanol/0.25% KCl (70:30:4, v/v/v) as the developing solvent. The gel area corresponding to LacCer was scraped, and radioactivity was measured employing “liquiscint” (NEN Life Science Products) as a scintillating fluid.

[2] = test system: small GTPase Ras; assay: Quantification of Ras activation (GST-Raf-1 RBD pull-down) in primary astrocytes; format: cell-based, rat; conditions: pretreated 0.5 h, TNFα
Description: After stimulation, primary astrocytes in 6-well plates were washed with ice cold PBS and lysed in membrane lysis buffer (MLB; 0.5 ml of 25 mM HEPES, pH 7.5, 150 mM NaCl, 1% Igepal CA-630, 0.25% sodium deoxycholate, 10% glycerol, 10 mM MgCl2, 1 mM EDTA, 25 mM NaF, 1 mM of sodium orthovanadate, and EDTA free Complete™ protease inhibitor cocktail). After centrifugation (5,000×g) at 4° C. for 5 min, supernatant was used for Ras activation assay. One hundred μg of supernatant was used for binding with agarose conjugated Ras-binding domain (RBD) of Raf-1 which was expressed in BL21 (Invitrogen), Escherichia coli strain, transformed by pGEX-2T-GST-RBD in the presence of 0.1 mM of IPTG as described previously (Herrmann et al., 1995). The binding reaction was performed at 4° C. for 30 min in MLB. Following washing with MLB three times, Ras-RBD complex were denatured by adding of 2×SDS sample buffer. Ras protein was identified by western blot analysis with Ras antibodies from Upstate Biotechnology.

[3] = test system: rat primary astrocytes; assay: BrdU incorporation assay, proliferation of primary astrocytes; format: cell-based; conditions: pretreated 0.5 h (AS: 48 h after transfection), TNFα 1 ng/ml 18 h, BrdU incorporation
Description: Primary astrocyte-enriched cultures were prepared from the whole cortex of one day old Sprague-Dawley rats as described earlier (Pahan et al., 1998b). Briefly, the cortex was rapidly dissected in ice-cold calcium/magnesium free Hanks Balanced Salt Solution (HBSS) (Gibco, Grand Island, N.Y.) at pH 7.4 as described previously (Won et al., 2001). The tissue was then minced, incubated in HBSS containing trypsin (2 mg/ml) for 20 min and washed twice in plating medium containing 10% FBS and 10 μg/ml gentamicin, and then disrupted by triturating through a Pasteur pipette following which cells were seeded in 75-cm^2 culture flasks (Falcon, Franklin, N.J.). After incubation at 37° C. in 5% CO2 for 1 day, the medium was completely changed to the culture medium (DMEM containing 5% FBS and 10 μg/ml gentamicin). The cultures received half exchanges with fresh medium twice a week. After 14-15 days the cells were shaken for at least 24 h on an orbital shaker to remove the microglia and then seeded on multi-well tissue culture dishes. The cells were incubated with serum-free DMEM for 24 h prior to the incubation with drugs.
Proliferation of primary astrocytes was assayed by using the Cell proliferation ELISA, BrdU colorimetric assay kit (Roche, Germany) according to manufacturer's protocol. Briefly, cells were seeded in 96 well plates in quadruplicate and following overnight serum starvation were stimulated with mitogenic stimulants. 2 h before termination of proliferation assay, BrdU (10 μM) was added to each well following which cells were fixed and levels of incorporated BrdU were assayed by using a conjugated anti-BrdU enzyme. Colorimetric analysis was done by measuring absorbance at 370 nm using a spectramax MAX 190 (Molecular devices) multi-well plate reading spectrophotometer.

[4] = test system: GFAP; assay: GFAP mRNA (real time PCR) and protein (immunoblot) in TNFα-stimulated primary astrocytes; format: cell-based, rat; conditions: TNFα 1 ng/ml; mRNA 8 h, protein 18 h
Description: (§1) For iNOS protein, the cells were washed with cold Tris buffered saline (TBS; 20 mM Trizma base, and 137 mM NaCl, pH 7.5), lysed in 1×SDS sample loading buffer (62.5 mM Trizma base, 2% w/v SDS, 10% glycerol), following sonication and centrifugation at 15,000×g for 5 min, the supernatant was used for the iNOS western immunoblot assay. The protein concentration of samples was determined with the detergent compatible protein assay reagent (Bio-Rad Laboratories, CA) using bovine serum albumin (BSA) as the standard. Sample was boiled for 3 min with 0.1 volumes of 10% β-mercaptoethanol and 0.5% bromophenol blue mix. Fifty μg of total cellular protein was resolved by electrophoresis on 8 or 12% polyacrylamide gels, electro-transferred to polyvinylidene difluoride (PVDF) filter and blocked with Tween 20 containing Tris-buffered saline (TBST; 10 mM Trizma base-pH 7.4, 1% Tween 20, and 150 mM NaCl) with 5% skim milk. After incubation with antiserum against iNOS (BD PharMingen, CA), rat GalT-2 (Abjent Inc., CA), H-Ras (Upstate Biotechnology, CA), GFAP (Santa Cruz Biotech, CA), or phospho-specific ERK1/2 (Cell signaling Tech Inc., MA), or pIκ-B (Signal Transduction), in PVDF buffer for 2 h at room temperature, the filters were washed 3 times with TBST buffer and then incubated with horseradish peroxidase conjugated anti-rabbit or mouse IgG for 1 h. The membranes were detected by autoradiography using ECL-plus (Amersham Pharmacia Biotech) after washing with TBST buffer.

[5] = test system: GalT-2; assay: GalT-2 activity assay on cell lysates; format: cell-based, rat; conditions: LY pretreatment
Description: The activity of GalT-2 was measured using [^3H]UDP-galactose as the galactose donor and GlcCer as the acceptor as described previously (Yeh et al., 2001). Briefly, cells were harvested in PBS and cell pellets were suspended in Triton X-100 lysis buffer. Cell lysates were sonicated and following protein quantification, 100 μg of cell lysate was added to reaction mixture containing […] of cacodylate buffer (pH 6.8), 1 mM Mn/Mg, 0.2 mg/ml Triton X-100 (1:2 v/v), 30 nmol of GluCer and […] of UDP-[^3H]galactose in a total volume of 100 μl. The reaction was terminated by adding 10 μl of 0.25M EDTA, 10 μl of 0.5M KCl and 500 μl of Chloroform/Methanol (2:1 v/v) and the products were separated by centrifugation. The lower phase was collected and dried under nitrogen. Following resolution on HPTLC plates, the gel was cut out and radioactivity was measured in a scintillation counter. Assay without exogenous GluCer served as blank and their radioactivity counts were subtracted from all respective data points.

[6] = test system: ERK1/2; assay: ERK1/2 activation (phospho-ERK1/2 immunoblot) in primary astrocytes; format: cell-based, rat; conditions: pretreated 0.5 h, TNFα 20 min
Description: as §1

[7] = test system: X-ALD patients; conditions: cited from earlier work
[8] = test system: primary cultured rat neocortical explants; conditions: cited from earlier work
[9] = test system: mice; conditions: cited from earlier work
[10] = test system: primary cultured rat neocortical explants; conditions: cited from earlier work; remark: listed apart in the source

SMILES: O=c1cc(N2CCOCC2)oc2c(-c3ccccc3)cccc12 [LY, 2-(4-Morpholinyl)-8-phenyl-4H-1-benzopyran-4-one]
- [14C]LacCer synthesis upon TNFα-stimulation [1]: inhibited
- TNFα-induced Ras activation [2]: inhibited
- TNFα-induced astrocyte proliferation [3]: significantly attenuated
- TNFα-induced GFAP mRNA and protein expression [4]: inhibited
- TNFα-induced GalT-2 activation [5]: inhibition
- TNFα-induced ERK1/2 phosphorylation [6]: inhibited

SMILES: CCCCCCCC/C=C\CCCCCCCC(=O)OCC(COC(=O)CCCCCCC/C=C\CCCCCCCC)OC(=O)CCCCCCC/C=C\CCCCCCCC [trioleate]
- Reduction of VLCFA [7]: 50%

SMILES: CCCCCCCCCC(=O)N[C@@H](CN1CCOCC1)[C@@H](O)c1ccccc1 [L-threo PDMP]
- Neurite outgrowth [8]: stimulated
- LD50 values, L-threo PDMP compared to D-threo PDMP [9]: higher
- GSL biosynthesis [10]: stimulated
